We go through 16 compounds from ChEMBL document CHEMBL3822388, “In vivo phenotypic drug discovery: applying a behavioral assay to the discovery and optimization of novel antipsychotic agents” (Medchemcomm, 2016).

Series [1] has as its system Mus musculus. As to the kind of experiment: Antipsychotic activity in ip dosed mouse administered 15 mins prior to testing by SmartCube automated system based method. Type of series: functional. Particulars: for minimal effective dose: Mus musculus, ip, read-out: MED.
For series [2], the system named is Mus musculus. Description: Antipsychotic activity in mouse at 30 mg/kg, ip administered 15 mins prior to testing by SmartCube automated system based method relative to standard compound. Type of series: functional.
Series [3] in a line: Chemical stability of the compound in 0.01 M HCl at pH 2 after 96 hrs by HPLC analysis. Particulars: buffer, pH 2, 96 h. It is filed as physicochemical.
Series [4] in a line: Chemical stability of the compound in 20 mM NH4Ac buffer solution at pH 7.1 after 96 hrs by HPLC analysis. It is filed as physicochemical. Particulars: pH 7.1, 96 h.
A further series concerns Liver microsome. As to the kind of experiment: Drug metabolism in human liver microsomes assessed as formation of 4-(3,4-dimethylthiophen-2-yl)pyrimidine at 3 uM in presence of NADPH by LC-MS/MS analysis. Type of series: ADME. A general note: Liver microsomes are a subcellular fraction often used to study metabolism.
Series [5] is described as follows: Drug metabolism in mouse liver microsomes assessed as formation of 4-(3,4-dimethylthiophen-2-yl)pyrimidine at 3 uM in presence of NADPH by LC-MS/MS analysis. It is filed as ADME.
In series [6] the test system is Mus musculus. Description: Antipsychotic activity in mouse at 30 mg/kg, ip administered 15 mins prior to testing by SmartCube automated system based method relative to vehicle. It is filed as functional.
Series [7] has as its target D(2) dopamine receptor (Homo sapiens) (UniProt P14416). Description: Displacement of [3H]methyl-spiperone from human recombinant D2 receptor expressed in HEK293 cells at 10 uM after 60 mins by scintillation counting analysis. Type of series: cell-based. For orientation: In a radioligand displacement assay an active substance lowers the binding of a labelled ligand.
A further series addresses CYP1A (Homo sapiens, UniProt P04798+P05177). As to the kind of experiment: Inhibition of CYP1A in human liver microsomes assessed as reduction in ethoxyresorufin o-deethylation by fluorescence assay. Particulars: probe ethoxyresorufin (O-deethylation).
The next series addresses Cytochrome P450 2C19 (Homo sapiens, UniProt P33261). Description: Inhibition of CYP2C19 in human liver microsomes assessed as reduction in S-mephenytoin 4-hydroxylation by LC-MS/MS analysis. Type of series: ADME.
Another series deals with Cytochrome P450 2C9 (Homo sapiens, UniProt P11712). Description: Inhibition of CYP2C9 in human liver microsomes assessed as reduction in tolbutamide 4-hydroxylation by LC-MS/MS analysis. Type of series: ADME.
Chain of Cytochrome P450 2C9 (P11712 whole entry): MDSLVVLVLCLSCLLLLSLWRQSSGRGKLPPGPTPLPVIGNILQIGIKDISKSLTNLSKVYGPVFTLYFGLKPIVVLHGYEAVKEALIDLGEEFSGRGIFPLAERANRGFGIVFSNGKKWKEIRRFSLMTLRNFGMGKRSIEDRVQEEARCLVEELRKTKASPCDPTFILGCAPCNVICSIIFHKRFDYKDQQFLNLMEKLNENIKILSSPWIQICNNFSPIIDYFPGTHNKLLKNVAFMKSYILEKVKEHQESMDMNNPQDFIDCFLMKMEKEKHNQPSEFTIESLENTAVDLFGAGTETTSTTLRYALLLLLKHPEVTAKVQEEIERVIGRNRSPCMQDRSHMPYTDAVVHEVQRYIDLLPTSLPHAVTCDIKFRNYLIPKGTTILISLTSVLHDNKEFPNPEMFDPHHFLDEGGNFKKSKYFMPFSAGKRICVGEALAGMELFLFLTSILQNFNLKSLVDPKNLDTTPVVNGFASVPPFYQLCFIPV
The target of another series is Cytochrome P450 2D6 (Homo sapiens, UniProt P10635). Description: Inhibition of CYP2D6 in human liver microsomes assessed as reduction in dextromethorphan o-demethylation by LC-MS/MS analysis. It is filed as ADME.
Chain of Cytochrome P450 2D6 (P10635 whole entry): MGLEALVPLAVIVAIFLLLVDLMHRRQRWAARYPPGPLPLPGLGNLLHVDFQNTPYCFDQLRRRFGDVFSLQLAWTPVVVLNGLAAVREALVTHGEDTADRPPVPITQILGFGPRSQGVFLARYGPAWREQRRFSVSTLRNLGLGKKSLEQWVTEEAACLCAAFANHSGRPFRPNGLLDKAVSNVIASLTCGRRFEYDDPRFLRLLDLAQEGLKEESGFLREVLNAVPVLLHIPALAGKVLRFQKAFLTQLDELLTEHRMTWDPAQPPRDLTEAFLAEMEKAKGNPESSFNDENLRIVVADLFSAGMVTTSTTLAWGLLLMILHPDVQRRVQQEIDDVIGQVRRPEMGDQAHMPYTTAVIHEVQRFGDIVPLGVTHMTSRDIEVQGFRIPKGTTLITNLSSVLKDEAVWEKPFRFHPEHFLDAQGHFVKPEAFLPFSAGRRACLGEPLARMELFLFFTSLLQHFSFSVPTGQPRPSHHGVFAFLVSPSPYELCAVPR
Another series deals with Cytochrome P450 3A4 (Homo sapiens, UniProt P08684). As to the kind of experiment: Inhibition of CYP3A4 in human liver microsomes assessed as reduction in midazolam 1-hydroxylation/testosterone 6beta-hydroxylation by LC-MS/MS analysis. It is filed as ADME.
Chain of Cytochrome P450 3A4 (P08684 whole entry): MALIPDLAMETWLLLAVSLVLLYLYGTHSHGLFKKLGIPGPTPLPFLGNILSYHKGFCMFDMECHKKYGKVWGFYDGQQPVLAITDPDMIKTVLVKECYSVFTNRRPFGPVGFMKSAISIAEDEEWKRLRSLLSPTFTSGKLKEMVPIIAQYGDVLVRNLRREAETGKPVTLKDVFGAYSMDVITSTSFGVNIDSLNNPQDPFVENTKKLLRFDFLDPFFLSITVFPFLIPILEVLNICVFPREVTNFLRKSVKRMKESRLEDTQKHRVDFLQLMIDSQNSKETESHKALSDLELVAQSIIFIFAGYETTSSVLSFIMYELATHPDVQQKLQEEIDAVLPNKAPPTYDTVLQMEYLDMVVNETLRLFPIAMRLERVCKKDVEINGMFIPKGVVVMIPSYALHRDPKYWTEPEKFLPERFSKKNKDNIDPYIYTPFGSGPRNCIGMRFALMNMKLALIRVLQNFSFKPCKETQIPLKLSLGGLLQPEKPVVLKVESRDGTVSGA
The nature of series [8]: Protein binding in mouse plasma at 5 uM by LC-MS/MS based equilibrium dialysis method. It is filed as ADME, cell-free. Particulars: read-out: PPB (converted).
Series [9] in a line: Protein binding in rat plasma at 5 uM by LC-MS/MS based equilibrium dialysis method. It is filed as ADME, cell-free. Particulars: read-out: PPB (converted). A general note: In equilibrium dialysis only unbound substance equilibrates across the membrane.
The nature of series [10]: Half life in human liver microsomes at 3 uM in presence of NADPH by LC-MS/MS analysis. It is filed as ADME.
Series [11] can be described thus: Half life in mouse liver microsomes at 3 uM in presence of NADPH by LC-MS/MS analysis. Type of series: ADME.
Series [12] can be described thus: Half life in rat liver microsomes at 3 uM in presence of NADPH by LC-MS/MS analysis. Type of series: ADME.
Series [13] has as its target Voltage-gated inwardly rectifying potassium channel KCNH2 (Homo sapiens, UniProt Q12809). As to the kind of experiment: Inhibition of human ERG. Particulars: read-out: IC50.
Series [14] relates to Mus musculus. Description: Antipsychotic activity in mouse at 3 to 30 mg/kg, ip dosed 15 mins prior to testing by SmartCube automated system based method relative to standard compound. Type of series: functional, organism-based.

One may read the IC50 as the point on the concentration scale where inhibition reaches its midpoint. The term half-life denotes the time needed for the level to fall by half in the phase considered.

Molecules are shown by their SMILES. Calls of active or inactive are those of the source.

Chain of D(2) dopamine receptor (Homo sapiens) (P14416 whole entry): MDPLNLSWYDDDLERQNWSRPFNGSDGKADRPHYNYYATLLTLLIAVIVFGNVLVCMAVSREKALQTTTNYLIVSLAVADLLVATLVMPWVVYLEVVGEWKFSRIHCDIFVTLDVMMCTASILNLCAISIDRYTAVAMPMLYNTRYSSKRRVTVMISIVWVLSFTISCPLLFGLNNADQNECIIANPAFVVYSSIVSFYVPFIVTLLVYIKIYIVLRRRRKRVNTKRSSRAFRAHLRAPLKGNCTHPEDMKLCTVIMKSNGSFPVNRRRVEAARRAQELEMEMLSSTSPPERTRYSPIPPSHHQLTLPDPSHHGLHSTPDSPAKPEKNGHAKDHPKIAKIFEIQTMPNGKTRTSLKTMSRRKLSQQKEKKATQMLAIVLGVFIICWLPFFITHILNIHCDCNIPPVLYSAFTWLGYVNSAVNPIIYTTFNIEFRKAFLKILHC
Chain of Voltage-gated inwardly rectifying potassium channel KCNH2 (Q12809 whole entry): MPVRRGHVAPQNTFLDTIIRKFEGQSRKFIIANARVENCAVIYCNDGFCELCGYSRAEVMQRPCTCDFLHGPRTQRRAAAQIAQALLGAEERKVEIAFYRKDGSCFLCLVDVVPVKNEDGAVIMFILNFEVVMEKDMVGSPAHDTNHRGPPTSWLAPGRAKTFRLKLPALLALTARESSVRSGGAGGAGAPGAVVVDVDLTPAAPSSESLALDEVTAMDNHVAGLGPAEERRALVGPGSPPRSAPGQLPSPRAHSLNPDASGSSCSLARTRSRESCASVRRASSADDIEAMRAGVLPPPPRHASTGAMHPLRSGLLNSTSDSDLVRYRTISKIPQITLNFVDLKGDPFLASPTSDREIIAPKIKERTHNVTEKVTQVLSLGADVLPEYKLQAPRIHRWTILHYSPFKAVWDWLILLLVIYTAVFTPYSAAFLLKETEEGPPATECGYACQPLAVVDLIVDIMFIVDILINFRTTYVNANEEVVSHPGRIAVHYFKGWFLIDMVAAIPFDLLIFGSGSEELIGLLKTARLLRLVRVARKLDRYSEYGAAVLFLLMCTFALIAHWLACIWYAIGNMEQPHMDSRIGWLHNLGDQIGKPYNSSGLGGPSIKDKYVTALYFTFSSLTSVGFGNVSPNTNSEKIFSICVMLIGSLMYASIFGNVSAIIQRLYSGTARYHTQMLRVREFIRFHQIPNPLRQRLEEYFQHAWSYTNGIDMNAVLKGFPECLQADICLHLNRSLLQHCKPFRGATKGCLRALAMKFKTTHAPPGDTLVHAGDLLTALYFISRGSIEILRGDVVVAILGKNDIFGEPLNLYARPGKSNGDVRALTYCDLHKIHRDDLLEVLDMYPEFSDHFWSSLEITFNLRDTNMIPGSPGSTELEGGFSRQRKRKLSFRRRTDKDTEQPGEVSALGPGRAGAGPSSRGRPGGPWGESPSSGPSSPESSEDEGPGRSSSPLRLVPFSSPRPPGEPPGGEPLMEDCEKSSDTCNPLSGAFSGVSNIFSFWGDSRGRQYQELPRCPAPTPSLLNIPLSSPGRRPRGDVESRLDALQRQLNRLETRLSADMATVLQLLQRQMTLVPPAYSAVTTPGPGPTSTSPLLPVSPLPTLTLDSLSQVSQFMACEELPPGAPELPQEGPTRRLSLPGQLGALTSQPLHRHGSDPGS
Chain of Cytochrome P450 2C19 (P33261 whole entry): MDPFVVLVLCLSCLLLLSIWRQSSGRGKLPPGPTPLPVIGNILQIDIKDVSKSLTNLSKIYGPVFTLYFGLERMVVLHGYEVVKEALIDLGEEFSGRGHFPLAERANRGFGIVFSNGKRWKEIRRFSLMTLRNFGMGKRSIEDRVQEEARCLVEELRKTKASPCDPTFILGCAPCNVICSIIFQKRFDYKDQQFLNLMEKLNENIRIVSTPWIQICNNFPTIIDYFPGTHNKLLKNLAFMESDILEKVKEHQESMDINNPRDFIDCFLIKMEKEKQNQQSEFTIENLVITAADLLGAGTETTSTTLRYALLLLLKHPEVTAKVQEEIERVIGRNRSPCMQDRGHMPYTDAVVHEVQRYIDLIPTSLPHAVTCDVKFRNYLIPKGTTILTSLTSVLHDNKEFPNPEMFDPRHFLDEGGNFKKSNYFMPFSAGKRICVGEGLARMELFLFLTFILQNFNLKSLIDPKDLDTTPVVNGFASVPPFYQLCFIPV

Take `CCc1ccc(C2C=CN=CN2)s1.Cl` (stereo not drawn): the minimal effective dose with Mus musculus [1] came out at 10 mg/kg.
Consider `Fc1c(C2NC=Nc3ccccc32)sc2ccccc12` (stereo not drawn), for which the result in the series on Mus musculus [2] was Active.
For the compound `Cc1csc(C2C=CN=CN2)c1C.Cl` (stereo in doubt; 12a), the MED in the series on Mus musculus [1] was determined as 3 mg/kg. In addition, the Stability result is listed as “Stable” in series [3] and “Unstable” in [4]. Besides, the Drug metabolism result (in the series with Liver microsome; in series [5]) was “metabolite_notdetected” in each case.
On to `Cc1sc2cc(Cl)ccc2c1C1C=CN=CN1.Cl` (stereo not drawn), for which, in the series with Mus musculus [1], the minimal effective dose was found to be 30 mg/kg.
The compound `Cc1csc(C2C=CN=CN2)c1C.Cl` (stereo in doubt; 12b) displayed an MED with Mus musculus [1] of 30 mg/kg.
Consider `Cc1c(F)sc(C2C=CN=CN2)c1C.Cl` (stereo not drawn), for which the minimal effective dose in the series on Mus musculus [1] was 10 mg/kg.
Still for that read-out and setting: with `Cc1sc2ccccc2c1C1C=CN=CN1.Cl` (stereo not drawn) the figure was 3 mg/kg.
As to `Cc1cc(C2C=CN=CN2)c(C)s1.Cl` (racemic), the Activity with Mus musculus [6] is on record as greater than 95%; in the series with Mus musculus [2], 40%. The inhibition result in series [7] is “inactive”. Besides, the IC50 on CYP1A is greater than 25 µM; on Cytochrome P450 2C19, 12.7 µM; at Cytochrome P450 2C9, greater than 25 µM; at Cytochrome P450 2D6 it was 6.3 µM; at Cytochrome P450 3A4 it was 19.8 µM; in series [13] it was greater than 25 µM. Moreover, the fraction unbound at 5 µM was 0.24 in [8] and 0.3 in series [9]. For the same compound, the half-life at 3 µM worked out at 48 min in [10], 155 min in series [11] and 39 min in series [12].
Take `Cc1c(C2C=CN=CN2)sc2ccccc12` (stereo not drawn): the outcome in the series with Mus musculus [2] was Active.
As to `Cc1sc2ccc(Cl)cc2c1C1C=CN=CN1.Cl` (stereo not drawn), the minimal effective dose in the series with Mus musculus [1] turned out to be 3 mg/kg.
As to `Cc1csc(-c2ccncn2)c1C`, in the series on Mus musculus [14], the outcome was Active.
For the compound `Cl.Fc1sc2ccccc2c1C1NC=NC=C1Cl` (stereo not drawn), the minimal effective dose in the series with Mus musculus [1] amounted to 30 mg/kg.
Turning to `Cc1sc2c(c1C1C=CN=CN1)CCCC2.Cl` (stereo not drawn), the minimal effective dose in the series with Mus musculus [1] worked out at 10 mg/kg.
On to `Cc1sc(C2C=CN=CN2)c(C)c1C.Cl` (stereo not drawn), for which the minimal effective dose with Mus musculus [1] turned out to be 30 mg/kg.
On to `Cc1csc(C2C=CN=CN2)c1C` (stereo in doubt; 12a), for which the outcome in the series on Mus musculus [14] was Active.
In the case of `Cl.Fc1ccc(-c2ccc(C3C=CN=CN3)s2)cc1` (stereo not drawn), the minimal effective dose in the series with Mus musculus [1] was 3 mg/kg.
